Measured values taken from US20130217664A1, “NOVEL COMPOUNDS USEFUL FOR THE TREATMENT OF DEGENERATIVE AND INFLAMMATORY DISEASES” (priority 2012, published 2013).

Key:
[1] = target: T1, human JAK1 (Homo sapiens, UniProt P23458); assay: JAK1 inhibition assay (polyGT substrate / Ulight-JAK1 peptide); type: biochemical; conditions: recombinant human JAK1 catalytic domain; polyGT or Ulight-JAK1 peptide assay
T1 construct: catalytic domain, amino acids 866-1154; catalog number PV4774; purchased Invitrogen PV4774
T1 sequence (P23458 866-1154): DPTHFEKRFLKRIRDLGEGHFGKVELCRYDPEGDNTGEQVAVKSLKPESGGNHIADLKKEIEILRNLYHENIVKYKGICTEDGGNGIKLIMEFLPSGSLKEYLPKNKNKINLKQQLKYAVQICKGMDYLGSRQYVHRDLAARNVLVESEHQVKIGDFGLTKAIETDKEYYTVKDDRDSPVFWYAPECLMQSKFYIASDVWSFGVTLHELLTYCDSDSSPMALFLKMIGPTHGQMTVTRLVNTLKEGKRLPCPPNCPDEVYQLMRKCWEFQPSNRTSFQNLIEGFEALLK
Procedure, shortened: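 Two formats. PolyGT radiometric: 45 min at 30 °C, stopped with phosphoric acid, counted as cpm. Ulight-JAK1 peptide: 60 min at room temperature, stopped with Eu-anti-phosphotyrosine/EDTA, read as RFU. Percent inhibition normalised to vehicle and 10 μM staurosporine.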

[2] = target: T2, human JAK2 (Homo sapiens, UniProt O60674); assay: JAK2 inhibition assay (polyGT substrate / Ulight-JAK1 peptide); type: biochemical; conditions: recombinant human JAK2 catalytic domain; polyGT or Ulight-JAK1 peptide assay
T2 construct: catalytic domain (amino acids 808-1132; catalog number PV4210); GST; purchased Invitrogen PV4210
T2 sequence (O60674 808-1132): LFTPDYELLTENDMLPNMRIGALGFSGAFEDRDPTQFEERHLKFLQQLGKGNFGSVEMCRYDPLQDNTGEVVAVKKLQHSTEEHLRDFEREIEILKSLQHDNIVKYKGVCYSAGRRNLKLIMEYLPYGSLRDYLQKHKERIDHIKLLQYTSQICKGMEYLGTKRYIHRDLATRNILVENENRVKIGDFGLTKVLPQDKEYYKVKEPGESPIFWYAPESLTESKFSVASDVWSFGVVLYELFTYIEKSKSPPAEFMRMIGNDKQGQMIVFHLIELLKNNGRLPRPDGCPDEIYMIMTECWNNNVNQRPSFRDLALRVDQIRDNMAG
Procedure, shortened: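 Radiometric: 0.025 mU JAK2 with 2.5 μg polyGT, 1 μM ATP plus ^33P-ATP in MOPS pH 7.5 buffer, 1% DMSO, 90 min at 30° C.; filter counting. Alternative TR-FRET format with Ulight-JAK1 peptide, 60 min at room temperature, Eu-anti-phosphotyrosine detection.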

[3] = test system: CTLL-2 cell line; assay: CTLL2 viability assay; type: cell-based; conditions: Mus musculus, IL-2 dependent CTLL2 viability, 24 h, ATP-lite
Excerpt: The protocol describes the methods to analyse the activity of compounds on their ability to sustain the IL2-dependent viability of CTLL2.
Final DMSO concentration was 0.1%.

[4] = test system: BA/F3 cell line; assay: BA/F3 viability assay; conditions: Mus musculus, BaF3, 48 h, read-out: BA/F3 IC50

SMILES	IC50 [1] [nM]	IC50 [2] [nM]	IC50 [3] [nM]	IC50 [4] [µM]
CCc1cc(C(C)O)ccc1N(C)c1cc2c(cn1)ncn2C (stereo not shown) [Compound 101, 1-(3-Ethyl-4-(methyl(1-methyl-1H-imidazo[4,5-c]pyridin-6-yl)amino)phenyl)ethanol]	0.01 to 100	0.01 to 100	> 1000	> 5
CCc1cc(-c2cncnc2)ccc1N(C)c1cc2c(cn1)ncn2C [Compound 95, N-(2-ethyl-4-(pyrimidin-5-yl)phenyl)-N,1-dimethyl-1H-imidazo[4,5-c]pyridin-6-amine]	0.01 to 100	101 to 500	> 1000	> 5
CCc1cc(C2CN(C(=O)C(F)F)C2)ncc1N(C)c1cc2c(cn1)ncn2C [Compound 333, 1-(3-{4-Ethyl-5-[methyl-(1-methyl-1H-imidazo[4,5-c]pyridin-6-yl)-amino]-pyridin-2-yl}-azetidin-1-yl)-2,2-difluoro-ethanone]	0.01 to 100	101 to 500	> 1000	> 5
CCc1cc(C2CN(C(=O)C(F)(F)F)C2)ncc1N(C)c1cc2c(cn1)ncn2C [Compound 334, 1-(3-{4-Ethyl-5-[methyl-(1-methyl-1H-imidazo[4,5-c]pyridin-6-yl)-amino]-pyridin-2-yl}-azetidin-1-yl)-2,2,2-trifluoro-ethanone]	0.01 to 100	0.01 to 100	> 1000	> 5
CCc1cc(CNS(C)(=O)=O)cc(F)c1N(C)c1cc2c(cn1)ncn2C [Compound 323, N-{3-Ethyl-5-fluoro-4-[methyl-(1-methyl-1H-imidazo[4,5-c]pyridin-6-yl)-amino]-benzyl}-methanesulfonamide]	0.01 to 100	0.01 to 100	> 1000	> 5
CCc1cc(CNS(=O)(=O)C(F)F)c(F)cc1N(C)c1cc2c(cn1)ncn2C [Compound 327, N-{5-Ethyl-2-fluoro-4-[methyl-(1-methyl-M-imidazo[4,5-c]pyridin-6-yl)-amino]-benzyl}-C,C-difluoro-methanesulfonamide]	0.01 to 100	0.01 to 100	501 to 1000	1 to 5
CCc1cc(CNS(=O)(=O)C(F)F)ncc1N(C)c1cc2c(cn1)ncn2C [Compound 343, N-{4-Ethyl-5-[methyl-(1-methyl-1H-imidazo[4,5-c]pyridin-6-yl)-amino]-pyridin-2-ylmethyl}-C,C-difluoro-methane sulfonamide]	0.01 to 100	101 to 500	> 1000	
CCc1cc(CNS(=O)(=O)C(F)F)cc(F)c1N(C)c1cc2c(cn1)ncn2C [Compound 324, N-{3-Ethyl-5-fluoro-4-[methyl-(1-methyl-1H-imidazo[4,5-c]pyridin-6-yl)-amino]-benzyl}-C,C-difluoro-methanesulfonamide]	0.01 to 100	0.01 to 100		
CCc1ccccc1N(CC1CC1)c1cc2c(cn1)ncn2C [Compound 35, N-(cyclopropylmethyl)-N-(2-ethylphenyl)-1-methyl-1H-imidazo[4,5-c]pyridin-6-amine]	0.01 to 100	> 1000		
Cc1ccc(OCC(C)C)cc1N(C)c1cc2c(cn1)ncn2C [Compound 63, N-(5-isobutoxy-2-methylphenyl)-N,1-dimethyl-1H-imidazo[4,5-c]pyridin-6-amine]	101 to 500	> 1000		
CCc1cc(C(C)(C)O)ccc1N(C)c1cc2c(cn1)ncn2C [Compound 103, 2-(3-Ethyl-4-(methyl(1-methyl-1H-imidazo[4,5-c]pyridin-6-yl)amino)phenyl)propan-2-ol]	0.01 to 100	101 to 500		
CCc1cc(-c2ccc(C)s2)ncc1N(C)c1cc2c(cn1)ncn2C [Compound 311, [4-Ethyl-6-(5-methyl-thiophen-2-yl)-pyridin-3-yl]-methyl-(1-methyl-1H-imidazo[4,5-c]pyridin-6-yl)-amine]	0.01 to 100	0.01 to 100		
CCc1ccccc1N(CC(F)F)c1cc2c(cn1)ncn2C [Compound 463, N-(2,2-difluoroethyl)-N-(2-ethylphenyl)-1-methyl-1H-imidazo[4,5-c]pyridin-6-amine]	0.01 to 100	101 to 500		
CN(c1ccc(CC#N)cc1)c1cc2c(cn1)ncn2C [Compound 26, 2-(4-(Methyl(1-methyl-1H-imidazo[4,5-c]pyridin-6-yl)amino)phenyl)acetonitrile]	0.01 to 100	101 to 500		
Cc1cc(-c2cncnc2)ccc1N(C)c1cc2c(cn1)ncn2C [Compound 72, N,1-dimethyl-N-(2-methyl-4-(pyrimidin-5-yl)phenyl)-1H-imidazo[4,5-c]pyridin-6-amine]	101 to 500	> 1000		
CN(c1ccc(O)cc1)c1cc2c(cn1)ncn2C [Compound 17, 4-(methyl(1-methyl-1H-imidazo[4,5-c]pyridin-6-yl)amino)phenol]	0.01 to 100	501 to 1000		
Cc1cc(OCC#N)ccc1N(C)c1cc2c(cn1)ncn2C [Compound 47, 2-(3-methyl-4-(methyl(1-methyl-1H-imidazo[4,5-c]pyridin-6-yl)amino)phenoxy)acetoni-trile]	0.01 to 100	101 to 500		

SMILES	IC50 [1] [nM]	IC50 [2] [nM]	IC50 [3] [nM]	IC50 [4] [µM]
Cc1ccc(OCc2ccc(Cl)cc2)cc1N(C)c1cc2c(cn1)ncn2C [Compound 62, N-(5-(4-chlorobenzyloxy)-2-methylphenyl)-N,1-dimethyl-1H-imidazo[4,5-c]pyridin-6-amine]	501 to 1000	> 1000		
CCc1cc(C(=O)NC)ccc1N(C)c1cc2c(cn1)ncn2C [Compound 85]	0.01 to 100	501 to 1000		
CCc1cc(-c2ccc(CN)s2)ncc1N(C)c1cc2c(cn1)ncn2C [Compound 303, [6-(5-Aminomethyl-thiophen-2-yl)-4-ethyl-pyridin-3-yl]-methyl-(1-methyl-1H-imidazo[4,5-c]pyridin-6-yl)-amine]	501 to 1000	> 1000		
CCNC(=O)c1ccc(N(C)c2cc3c(cn2)ncn3C)c(CC)c1 [Compound 102, N,3-diethyl-4-(methyl(1-methyl-1H-imidazo[4,5-c]pyridin-6-yl)amino)benzamide]	0.01 to 100	> 1000		
Cc1ccc(OCCCC#N)cc1N(C)c1cc2c(cn1)ncn2C [Compound 60, 4-(4-methyl-3-(methyl(1-methyl-1H-imidazo[4,5-c]pyridin-6-yl)amino)phenoxy)butane nitrile]	0.01 to 100	> 1000		
CN(c1cc2c(cn1)ncn2C)c1ccc(CNC(=O)C(F)F)cc1F [Compound 320]	0.01 to 100	0.01 to 100		
CCc1cc(OC2CCN(S(C)(=O)=O)C2)ccc1N(C)c1cc2c(cn1)ncn2C (stereo not shown) [Compound 110, N-(2-Ethyl-4-((1-(methylsulfonyl)pyrrolidin-3-yl)oxy)phenyl)-N,1-dimethyl-1H-imidazo[4,5-c]pyridin-6-amine]	0.01 to 100	101 to 500		
CCc1cn(CCC#N)nc1N(C)c1cc2c(cn1)ncn2C [Compound 316, 3-{4-Ethyl-3-[methyl-(1-methyl-1H-imidazo[4,5-c]pyridin-6-yl)-amino]-pyrazol-1-yl}-propionitrile]	> 1000	> 1000		
CCc1cc(-c2ccc(Cl)s2)ncc1N(C)c1cc2c(cn1)ncn2C [Compound 304, [6-(5-Chloro-thiophen-2-yl)-4-ethyl-pyridin-3-yl]-methyl-(1-methyl-1H-imidazo[4,5-c]pyridin-6-yl)-amine]	0.01 to 100	0.01 to 100		
Cc1ccc(OCC#N)cc1N(C)c1cc2c(cn1)ncn2C [Compound 57, 2-(4-methyl-3-(methyl(1-methyl-1H-imidazo[4,5-c]pyridin-6-yl)amino)phenoxy)acetoni-trile]	0.01 to 100	101 to 500		
COc1cc(N2CCOCC2)ncc1N(C)c1cc2c(cn1)ncn2C [Compound 313, (4-Methoxy-6-morpholin-4-yl-pyridin-3-yl)-methyl-(1-methyl-1H-imidazo[4,5-c]pyridine-6-yl)-amine]	0.01 to 100	101 to 500		
CCc1cc(C(=O)NCc2ccccc2)ccc1N(C)c1cc2c(cn1)ncn2C [Compound 98, N-benzyl-3-ethyl-4-(methyl(1-methyl-1H-imidazo[4,5-c]pyridin-6-yl)amino)benzamide]	0.01 to 100	501 to 1000		
CCc1cc(-c2ccc(C#N)nc2)ccc1N(C)c1cc2c(cn1)ncn2C [Compound 114, 5-(3-ethyl-4-(methyl(1-methyl-1H-imidazo[4,5-c]pyridin-6-yl)amino)phenyl)picolino-nitrile]	0.01 to 100	101 to 500		
COC(=O)c1ccc(N(C)c2cc3c(cn2)ncn3C)c(C)c1 [Compound 27, Methyl 3-methyl-4-(methyl(1-methyl-1H-imidazo[4,5-c]pyridin-6-yl)amino)benzoate]	101 to 500	> 1000		
CCc1cc(-c2cccnc2)ccc1N(C)c1cc2c(cn1)ncn2C [Compound 94, N-(2-ethyl-4-(pyridin-3-yl)phenyl)-N,1-dimethyl-1H-imidazo[4,5-c]pyridin-6-amine]	0.01 to 100	101 to 500		
CCc1cc(COC)ccc1N(C)c1cc2c(cn1)ncn2C [Compound 105, N-(2-Ethyl-4-(methoxymethyl)phenyl)-N,1-dimethyl-1H-imidazo[4,5-c]pyridin-6-amine]	0.01 to 100	101 to 500		
